Measured values reported in patent EP0440298A1, “Topical preparations for treating human nails” (BROCADES PHARMA B.V., priority 1990, dated 1991).

Tests used:
[1] = assay type: in vitro ADME, human
Method: (§1) On human nail discs of 6 mm diameter were mounted 1.5 cm pieces of tubing of 4 mm outer and 3 mm inner diameter, in each of which was poured 30 µl of one of the above lotions (n = 2 x 3). The free (ventral) surfaces of the nail discs were kept moist on a pad soaked in saline.
(§2) After 48 hours of incubation at 30°C and the discs were sectioned (50 µm) parallel to their dorsal surface, using a freeze-microtome. Radioactivity was measured in the separate sections, after which the amount of penetrated oxiconazole was calculated.
To lotions consisting of 50% v/v of ethanol in distilled water were added 0.1 M of NAC (pH 2.3), of 1,4-dithiothreitol (DTT, not claimed, pH 4.5) or of ammonium thioglycolate (ATG, not claimed, pH 9.0), as in Example 10. To all three solutions was also added 1% w/v of oxiconazole, containing a known amount (1 µCi per 30 µl) of radioactive ¹⁴C oxiconazole. These lotions were tested in an experimental set-up as in Examples 6 and 9.

[2] = Weight increase of nail clippings during immersion in a lotion (Example 1); parameters: species or system Human
Method: Solutions (lotions) were prepared, containing (v/v) 40% of distilled water, 40% of methyl ethyl ketone and 20% of isopropyl alcohol.
To these lotions were added salicylic acid, NAC, 1,4-dithiothreitol or mercaptoethylamine, in w/v concentrations as further specified in Table 1.
To distilled water were added glutathione, mercaptoethanol or urea, in w/v concentrations as further specified in Table 1.
(§3) Human nail clippings were immersed in the test and control lotions at ambient temperature and their weight increase expressed as % of their original weight.

[3] = Comparison of sulfhydryl compounds: weight increase of nail clippings during immersion in a lotion (Example 10); parameters: species or system human; conditions: 0.1 M in lotion of 50% v/v ethanol in distilled water
Method: as §3
The effects of 0.1 M of each of NAC (pH 2.3), 1,4-dithiothreitol (DTT, not claimed, pH 4.5) and ammonium thioglycolate (ATG, not claimed, pH 9.0), in a lotion consisting of 50% v/v ethanol in distilled water were compared, as in Example 1. The immersion period of the human nail clippings in the control and test lotions was 72 hours.

[4] = Effect of NAC-containing lotion on the penetration of 14C oxiconazole in nail discs (Example 6); assay type: in vitro ADME, human; conditions: 20% w/v NAC lotion with 1% w/v oxiconazole; 48 hours at 30°C
Method: A 20% w/v NAC-containing lotion and a control lotion were prepared as in Example 1.
To both these preparations was added 1% w/v of oxiconazole, containing a known amount (1 µCi per 30 µl) of radioactive ¹⁴C oxiconazole.
as §1, §2

[5] = Penetration of eosine in nail clippings after dorsal application of a film-forming lotion (Example 4); assay type: in vitro ADME, Human; conditions: after 6 days of film-forming lotion treatment, then 24 hours in 1% eosine solution without NAC
Method: (§4) A film-forming lotion was prepared, consisting by weight of 17.5 parts of distilled water, 17.5 parts of ethanol, 20 parts of acetone, 25 parts of polyvinylpyrrolidone VA-S630 and 20 parts of NAC. The control film-forming lotion lacked the NAC.
(§5) Human nail clippings (n = 2 x 3) were laid on pads soaked in saline, and the two types of film-forming lotion were painted on their dorsal surface twice a day. The weights of the clippings were determined after 3, 4, 5 and 6 days.
After the above 6 days of treatment, the (2 x 3) clippings were rinsed and placed for 24 hours in a solution of 1% eosine, as described in Example 2 (without NAC), and then further processed for the microscopic estimation of dye penetration as in Example 2. The average penetration of the dye through the NAC-penetrated nails was 48% of the nail thickness, compared to 6% in the controls.

[6] = Effect of pretreatment with cream on the penetration of oxiconazole in nail discs (Example 8); assay type: in vitro ADME, Human; conditions: pretreatment with cream twice daily during 5 days, then Oceral lotion (1% oxiconazole) 48 hours at 30°C, 60% relative humidity
Method: A NAC-containing cream and a control cream were prepared as in Example 5.
(§6) Human nail discs of 6 mm diameter, resting with their ventral side on pads soaked with saline, were dorsally painted with these creams (n = 2 x 3) twice daily during 5 days. Then the six nail discs were rinsed and mounted on pieces of tubing as in Example 6. Subsequently 20 mg of ¹⁴C oxiconazole was added to 30 ml of Oceral® lotion (i.e. 1% oxiconazole in an alcoholic base). Of this, 30 µl was poured into the tubings on top of the dorsal surfaces of the discs as in Example 6. The free (ventral) surfaces of the nail discs were again kept moist on a pad soaked in saline.
(§7) After 48 hours of incubation at 30°C and 60% relative humidity the discs were sectioned (50 µm) parallel to their dorsal surface, using a freeze-microtome. Radioactivity was measured in the separate sections, after which the amount of penetrated oxiconazole was calculated.

[7] = Weight increase of nail clippings on dorsal application of a film-forming lotion (Example 4); parameters: species or system Human; conditions: film-forming lotion with 20 parts of NAC painted on dorsal surface twice a day; after 3 days (no further change up to 6 days)
Method: as §4, §5

[8] = Penetration of eosine in nail clippings after immersion in a lotion (pretreatment, Example 3); assay type: in vitro ADME, Human; conditions: pretreatment in NAC lotion lacking eosine, then 24 hours in lotion with 1% eosine lacking NAC
Method: (§8) To a similar solution (lotion) as in Example 1, consisting of (v/v) 40% distilled water, 40% of methyl ethyl ketone and 20% of isopropyl alcohol, were added (w/v) 17% of NAC and 1% of eosine.
(§9) Human nail clippings were immersed in this liquid and in the same liquid without NAC (n = 2 x 3) during 48 hours at room temperature, after which the colour penetration was estimated on microscopic freeze sections.
The same experimental set-up as in Example 2 was used, except that the nail clippings were first immersed in lotions lacking eosine, and subsequently during 24 hours in lotions containing 1% eosine but lacking NAC. n was again 2 x 3.

[9] = Penetration of the hydrophilic dye eosine in nail clippings during immersion in a lotion (Example 2); assay type: in vitro ADME, Human; conditions: lotion with 17% NAC and 1% of eosine; immersion 48 hours at room temperature; microscopic freeze sections
Method: as §8, §9

[10] = Effect of pretreatment with NAC-containing film-forming lotion on the penetration of oxiconazole in nail discs (Example 7); assay type: in vitro ADME, Human
Method: A 20% w/v NAC-containing film-forming lotion and a control film-forming lotion were prepared as in Example 4.
as §6, with “film-forming lotions” for “creams”
as §7

O[C@H](CS)[C@H](O)CS (relative stereo) [1,4-Dithiothreitol, 1,4-dithiothreitol]
Average amount of oxiconazole (μg), Total [1]: 10.02 µg
Average % weight increase during immersion (hours) ([2]; 20 % w/v in lotion, 1 hour): 21%
Average % weight increase during immersion (hours) ([2]; 20 % w/v in lotion, 3 hours): 32%
Average % weight increase during immersion (hours) ([2]; 20 % w/v in lotion, 6 hours): 38%
Average % weight increase during immersion (hours) ([2]; 20 % w/v in lotion, 24 hours): 51%
Average % weight increase during immersion (hours) ([2]; 20 % w/v in lotion, 48 hours): 50%
Average % weight increase during immersion (hours) ([2]; 20 % w/v in lotion, 72 hours): 58%
Average % weight increase after immersion during 72 hours [3]: 49%

O=C(O)CS [Ammonium thioglycolate, ammonium thioglycolate]
Average amount of oxiconazole (μg), Total [1]: 2.34 µg
Average % weight increase after immersion during 72 hours [3]: 52%

N[C@@H](CCC(=O)N[C@@H](CS)C(=O)NCC(=O)O)C(=O)O [Glutathione, glutathione]
Average % weight increase during immersion (hours) ([2]; 10 % w/v in distilled water, 1 hour): 30%
Average % weight increase during immersion (hours) ([2]; 10 % w/v in distilled water, 3 hours): 32%
Average % weight increase during immersion (hours) ([2]; 10 % w/v in distilled water, 6 hours): 33%
Average % weight increase during immersion (hours) ([2]; 10 % w/v in distilled water, 24 hours): 44%
Average % weight increase during immersion (hours) ([2]; 10 % w/v in distilled water, 48 hours): 58%
Average % weight increase during immersion (hours) ([2]; 10 % w/v in distilled water, 72 hours): 61%

NCCS [Mercaptoethyl-amine, mercaptoethylamine]
Average % weight increase during immersion (hours) ([2]; 20 % w/v in lotion, 1 hour): 10%
Average % weight increase during immersion (hours) ([2]; 20 % w/v in lotion, 3 hours): 16%
Average % weight increase during immersion (hours) ([2]; 20 % w/v in lotion, 6 hours): 21%
Average % weight increase during immersion (hours) ([2]; 20 % w/v in lotion, 24 hours): 38%
Average % weight increase during immersion (hours) ([2]; 20 % w/v in lotion, 48 hours): 55%
Average % weight increase during immersion (hours) ([2]; 20 % w/v in lotion, 72 hours): 64%

CC(=O)N[C@@H](CS)C(=O)O [NAC, N-acetyl-cysteine]
Average amount of oxiconazole (μg), Total [1]: 15.17 µg
average total uptake of oxiconazole (expressed as a % of the total amount of oxiconazole applied) [4]: 4.94%
average penetration of the dye, % of the nail thickness [5]: 48%
average total uptake of oxiconazole (expressed as a % of the total amount of oxiconazole applied) [6]: 4.0%
Average % weight increase during immersion (hours) ([2]; 5 % w/v in lotion, 1 hour): 23%
Average % weight increase during immersion (hours) ([2]; 5 % w/v in lotion, 3 hours): 32%
Average % weight increase during immersion (hours) ([2]; 5 % w/v in lotion, 6 hours): 38%
Average % weight increase during immersion (hours) ([2]; 5 % w/v in lotion, 24 hours): 47%
Average % weight increase during immersion (hours) ([2]; 5 % w/v in lotion, 48 hours): 60%
Average % weight increase during immersion (hours) ([2]; 5 % w/v in lotion, 72 hours): 70%
Average % weight increase during immersion (hours) ([2]; 10 % w/v in lotion, 1 hour): 24%
Average % weight increase during immersion (hours) ([2]; 10 % w/v in lotion, 3 hours): 33%
Average % weight increase during immersion (hours) ([2]; 10 % w/v in lotion, 6 hours): 38%
Average % weight increase during immersion (hours) ([2]; 10 % w/v in lotion, 24 hours): 59%
Average % weight increase during immersion (hours) ([2]; 10 % w/v in lotion, 48 hours): 67%
Average % weight increase during immersion (hours) ([2]; 10 % w/v in lotion, 72 hours): 79%
Average % weight increase during immersion (hours) ([2]; 20 % w/v in lotion, 1 hour): 23%
Average % weight increase during immersion (hours) ([2]; 20 % w/v in lotion, 3 hours): 30%
Average % weight increase during immersion (hours) ([2]; 20 % w/v in lotion, 6 hours): 37%
Average % weight increase during immersion (hours) ([2]; 20 % w/v in lotion, 24 hours): 60%
Average % weight increase during immersion (hours) ([2]; 20 % w/v in lotion, 48 hours): 91%
Average % weight increase during immersion (hours) ([2]; 20 % w/v in lotion, 72 hours): 110%
Average % weight increase during immersion (hours) ([2]; 40 % w/v in lotion, 1 hour): 24%
Average % weight increase during immersion (hours) ([2]; 40 % w/v in lotion, 3 hours): 33%
Average % weight increase during immersion (hours) ([2]; 40 % w/v in lotion, 6 hours): 38%
Average % weight increase during immersion (hours) ([2]; 40 % w/v in lotion, 24 hours): 71%
Average % weight increase during immersion (hours) ([2]; 40 % w/v in lotion, 48 hours): 110%
Average % weight increase during immersion (hours) ([2]; 40 % w/v in lotion, 72 hours): 154%
weight increase of clippings [7]: 34%
Average % weight increase after immersion during 72 hours [3]: 72%
average penetration of the dye [8]: 19%
average penetration of the dye, % of the total nail thickness [9]: 27.5%
average radioactivity in the three pads under the discs ([10]; pretreatment with film-forming lotion 5 days, then 14C oxiconazole in Oceral lotion 48 hours): 7.53%
average total uptake of oxiconazole (expressed as a % of the total amount of oxiconazole applied) ([10]; pretreatment with film-forming lotion twice daily during 5 days, then Oceral lotion (1% oxiconazole) 48 hours at 30°C, 60% relative humidity): 3.25%

O=C(O)c1ccccc1O [Salicylic acid]
Average % weight increase during immersion (hours) ([2]; 14 % w/v in lotion (water/methyl ethyl ketone/isopropyl alcohol), 1 hour, ambient temperature): 17%
Average % weight increase during immersion (hours) ([2]; 14 % w/v in lotion, 3 hours): 24%
Average % weight increase during immersion (hours) ([2]; 14 % w/v in lotion, 6 hours): 26%
Average % weight increase during immersion (hours) ([2]; 14 % w/v in lotion, 24 hours): 29%
Average % weight increase during immersion (hours) ([2]; 14 % w/v in lotion, 48 hours): 30%
Average % weight increase during immersion (hours) ([2]; 14 % w/v in lotion, 72 hours): 30%

NC(N)=O [Urea, urea]
Average % weight increase during immersion (hours) ([2]; 50 % w/v in distilled water, 1 hour): 22%
Average % weight increase during immersion (hours) ([2]; 50 % w/v in distilled water, 3 hours): 24%
Average % weight increase during immersion (hours) ([2]; 50 % w/v in distilled water, 6 hours): 32%
Average % weight increase during immersion (hours) ([2]; 50 % w/v in distilled water, 24 hours): 35%
Average % weight increase during immersion (hours) ([2]; 50 % w/v in distilled water, 48 hours): 36%
Average % weight increase during immersion (hours) ([2]; 50 % w/v in distilled water, 72 hours): 37%
